What all share (assay): NCI tumour cell line growth inhibition, 48 h
Test [1] relates to HCC-2998 colon.
The test system of test [2] is SK-MEL-5 melanoma.
Test [3] has as its system UO-31 renal.
In test [4] the test system is HL-60(TB) leukemia.
Test [5] deals with MDA-MB-435.
In test [6] the test system is HS 578T breast.
For test [7], the system named is CAKI-1 renal.
For test [8], the system named is HT29 colon.
The subject of test [9] is SNB-75 CNS.
Test [10] relates to SK-MEL-2 melanoma.
For test [11], the system named is NCI-H23 lung.
Test [12] has as its system OVCAR-3 ovarian.
Test [13] relates to LOX IMVI melanoma.
Test [14] relates to ACHN renal.
Test [15] deals with U251 CNS.
Test [16] has as its system SF-295 CNS.
In test [17] the test system is SNB-19 CNS.

The structures appear in SMILES notation.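 1) Cells in 96-well plates. 2) Compound, 48 h, 5 concentrations. 3) Linear interpolation between surrounding doses. 4) Unreached endpoint = highest concentration. The concentration for full growth arrest is given as TGI.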 Bounds are passed on as bounds.

On to `C(=Nc1ccc(-c2nc3ccccc3[nH]2)cc1)c1ccc[nH]1`, for which the TGI in test [1] was > 100 µM; in [2], > 100 µM; in [3], > 100 µM; in test [4], 20.1 µM; in test [5] it was > 100 µM; in [6] it was > 100 µM. Further, the TGI in test [7], in test [8], in [9], in test [10], in [11] and in [12] was > 100 µM in each case. Also, the TGI in [13] and in test [14] was > 100 µM in each case.

Turning to `O=[N+]([O-])c1ccc(C(Nc2ccccc2)P(c2ccccc2)c2ccccc2)cc1` (stereo unspecified), the TGI in test [2], in test [15], in test [3], in [4], in test [5] and in test [6] was > 100 µM each time. The TGI in test [7], in [16], in test [8], in [9], in test [10] and in test [11] was > 100 µM each time. For the same compound, the TGI in test [13], in test [14] and in [17] was > 100 µM in each case.

For the compound `CC(=O)c1ccccc1NCC(=O)Nn1cnc2ccc(S(=O)(=O)Nc3ccccc3C(C)=O)cc2c1=O`, the TGI in test [1], in test [15], in test [3], in test [4], in [5] and in test [6] was > 100 µM each time. Besides, the TGI in [7], in [16], in [8], in test [9], in test [10] and in [11] was > 100 µM each time. The TGI in test [12], in [13], in test [14] and in test [17] was > 100 µM in each case.

With `O=C(NC1CCCCC1)c1cc2ccccc2cc1O`, the TGI in [1] is 58.8 µM; in test [2] it was 47.9 µM; in test [15] it was > 100 µM; in test [3], 99 µM; in [4], 96.1 µM; in test [5], > 100 µM. Also, the TGI in test [6] is 97.8 µM; in test [7] it was > 100 µM; in test [16] it was > 100 µM; in [8] it was 37 µM; in [9], > 100 µM; in test [10], 44.7 µM. For the same compound, the TGI in [13] and in [17] was > 100 µM in each case.

Take `COC(=O)CCc1ccc2c(c1)C(=O)CC2`: the TGI in test [1], in test [2], in test [15], in test [3], in [4] and in test [5] was > 100 µM throughout. Further, the TGI in test [6] is > 100 µM; in test [16], > 100 µM; in test [8] it was > 100 µM; in [9] it was 99.9 µM; in [10], > 100 µM; in test [11], > 100 µM. The TGI in test [12], in test [13], in test [14] and in test [17] was > 100 µM in each case.

As to `CCOP(=O)(OCC)C(c1ccccc1)N(C(=O)NC(F)(F)F)c1cccc(F)c1` (stereo unspecified), the TGI in [1], in [2], in test [15], in test [3], in test [4] and in test [5] was > 100 µM each time. For the same compound, the TGI in test [6], in test [7], in test [16], in [8], in [9] and in [11] was > 100 µM throughout. Besides, the TGI in test [12], in [13], in test [14] and in test [17] was > 100 µM throughout.

Take `COc1cc(C2SC(C)C(=O)N2c2ccc(-c3csc(NS(=O)(=O)c4ccc(Cl)c(OC)c4)n3)cc2)ccc1O` (stereo unspecified): the TGI in test [2] was > 100 µM; in test [15] it was > 100 µM; in test [3], > 100 µM; in test [4] it was 95.7 µM; in test [5], > 100 µM; in test [6], > 100 µM. For the same compound, the TGI in [7] was > 100 µM; in test [16], > 100 µM; in test [8], > 100 µM; in test [9], 61 µM; in test [10], > 100 µM; in test [11] it was 53.6 µM. Also, the TGI in test [12], in [13], in [14] and in test [17] was > 100 µM each time.

Take `O=C(CCCCCC(=O)N1CC(CCl)c2ccc([N+](=O)[O-])cc21)N1CC(CCl)c2ccc([N+](=O)[O-])cc21` (stereo unspecified): the TGI in test [1], in test [2], in test [15], in test [3], in test [4] and in test [5] was > 100 µM throughout. For the same compound, the TGI in [6], in [7], in [16], in test [9], in test [10] and in test [11] was > 100 µM in each case. The TGI in test [12], in test [13], in test [14] and in test [17] was > 100 µM each time.

As to `Cc1ccc(C(=O)N(Cc2ccccc2)Cc2ccccc2)cc1N=NN(C)C`, the TGI in test [1] is 96 µM; in test [2] it was 27.3 µM; in [15], > 100 µM; in [3] it was > 71 µM; in test [4], 61.9 µM; in [5], 54.8 µM. In addition, the TGI in test [6] is 75.2 µM; in [7], > 100 µM; in test [16], > 81.5 µM; in [8], 21.3 µM; in [10], 9.79 µM; in test [11], 58.7 µM. The TGI is 43.1 µM in test [12], 15.6 µM in test [13], > 92.7 µM in test [14] and > 100 µM in test [17].

Regarding `O=c1[nH]c(=O)n(C2CC(O)C(CO)O2)cc1NN=NCCCc1ccccc1` (stereo unspecified), the TGI in [1], in test [2], in test [4], in test [5], in test [6] and in [7] was > 100 µM throughout. The TGI in test [16], in test [8], in test [10], in test [11], in test [12] and in test [13] was > 100 µM throughout. In addition, the TGI in test [14] is > 100 µM.

In the case of `CCCCCCCC(CC(=O)NC(CO)C(=O)NC(CO)CC(C)C)OC(=O)CC(CCCCCCC)OC(=O)CC(CCCCCCC)OC1OC(C)C(O)C(OC2OC(C)C(O)C(O)C2OC(C)=O)C1O` (stereo unspecified), the TGI in [1] is 25.8 µM; in [2], 21.7 µM; in test [15], 20.1 µM; in [3] it was 30.7 µM; in [4], 10.4 µM; in test [5], 13.8 µM. The TGI in [6] was found to be 19.1 µM; in [7] it was 28.3 µM; in test [16], 21.7 µM; in [8], 13.7 µM; in [9] it was 17.6 µM; in test [11] it was 22 µM. The TGI in test [12] is 25.6 µM; in [14], 28.9 µM; in test [17] it was 20.8 µM.

Turning to `CCOC(=O)c1sc2nc(SC)nc3c2c1NCN3c1ccc(F)c(F)c1`, the TGI is > 64 µM in test [1]; > 100 µM in test [2]; 30.8 µM in [15]; > 63.3 µM in test [3]; > 100 µM in test [4]; 41.7 µM in test [5]. Also, the TGI in test [6] was 30.8 µM; in [7] it was > 100 µM; in test [16], 65.9 µM; in [8], > 100 µM; in [10], > 100 µM; in [11], 75.3 µM. Besides, the TGI in [12] was 19.5 µM; in test [13], > 60.1 µM; in test [14], > 100 µM; in test [17] it was > 83.2 µM.

With `O=c1c2c3c(sc2nc2n1N=C(c1ccc(Cl)cc1)CS2)CCCC3`, the TGI in test [1], in [2], in [15], in test [3], in test [4] and in [5] was > 100 µM in each case. Also, the TGI in test [6], in [7], in [16], in test [8], in test [9] and in test [11] was > 100 µM each time. Besides, the TGI in [12], in test [13] and in test [14] was > 100 µM in each case.

`C(/Cc1ccc2c(c1)OCO2)=N\NC1=NCCN1`: the TGI in [1], in [2], in test [15], in test [3], in test [4] and in test [5] was > 100 µM in each case. The TGI in [6], in [16], in [8], in [9], in [10] and in [11] was > 100 µM throughout. Also, the TGI in test [12], in test [13], in test [14] and in test [17] was > 100 µM in each case.

In the case of `NNc1nncc2[nH]cnc12`, the TGI in test [2], in [15], in test [3], in test [4], in test [5] and in test [6] was > 100 µM in each case. Besides, the TGI in test [7], in test [16], in test [8], in test [9], in test [10] and in test [11] was > 100 µM each time. The TGI in test [12], in test [14] and in [17] was > 100 µM in each case.

On to `CCOC(=O)C(CC(C)C)NC(=O)CSc1nnc(COc2ccc(Cl)cc2)n1-c1ccccc1` (stereo unspecified), for which the TGI in [1] is 27.4 µM; in test [2], 32.6 µM; in test [15], 33.4 µM; in test [3], 3.68 µM; in test [4], 43.4 µM; in [5], 35.6 µM. For the same compound, the TGI in test [6] was determined as 60.9 µM; in [8] it was 32.7 µM; in test [9], 32 µM; in test [10] it was 30 µM; in [11] it was 29.5 µM; in [12] it was 24.7 µM. Moreover, the values for the TGI in [13], in [14] and in test [17] were 28.9 µM, 26 µM and 31.6 µM, respectively.

As for `CSC1C(=O)Nc2ccc3ccccc3c21` (stereo unspecified), the TGI in [1] was > 100 µM; in test [2], 57.4 µM; in test [15] it was 33.6 µM; in test [3], 33.2 µM; in [4], 10.8 µM; in test [5], > 100 µM. The TGI is 46 µM in test [6]; 38.9 µM in [7]; > 100 µM in test [16]; > 100 µM in [8]; 70.5 µM in test [9]; > 100 µM in test [10]. Besides, the TGI in [11] was > 100 µM; in [13], 31 µM; in test [14], 92.4 µM; in [17] it was > 100 µM.

On to `c1ccc(CN[C@]23C4C5CC6C7C5C2C7[C@@](NCc2ccccc2)(C64)N3Cc2ccccc2)cc1` (stereo partly specified), for which the TGI in [2], in [15], in test [3], in test [4], in test [5] and in [6] was > 100 µM each time. The TGI in test [7], in test [16], in test [8], in test [9], in [10] and in test [11] was > 100 µM in each case. Also, the TGI in test [12], in test [13], in [14] and in test [17] was > 100 µM in each case.

The values above are taken from PubChem BioAssay (NCI).
